# Test system: SARS-CoV-2
# Experiment: CPE inhibition assay, anti-SARS-CoV-2 virus activity in vitro (Test Example 4)
# Assay type: cell-based
# Settings: CPE inhibition at 10 µM; VeroE6-TMPRSS2 cells; MOI 0.01; third day post infection; average of three tests
row,Compound,Anti SARS-CoV-2 activity
1,"Cc1noc([C@@H]2CC[C@H]3N2C(=O)[C@@H](Cc2ccccc2)N2C(=O)N(Cc4cccs4)C(=O)N(Cc4cccs4)C32O)n1 (stereo partly drawn) [Compound 18I, (6R,9S,11aR)-6-benzyl-11b-hydroxy-9-(3-methyl-1,2,4-oxadiazol-5-yl)-1,3-bis(thiophen-2-ylmethyl)hexahydro-2H-pyrrolo[2',1':3,4]pyridazine[1,2-a][1,3,5]triazine-2,4,7(3H,6H)-trione]",B (a CPE inhibition effect of less than 5% but 1% or more)
2,"(6 R,9 S,11aR,11bR)-1,3-Dibenzyl-N-(bicyclo[1,1,1]penta n-1-yl) 11b-Hydroxy-6-isopropyl-2,4,7-trioxodecahydro- 2H-pyrrolo [2"",1"":3,4]pyrazino[ 1,2-a][1,3,5] triazine-9-carboxamide [Compound 3I]",A (a CPE inhibition effect of 5% or more)
3,"(6R,9S,10aR)-1,3,6-tribenzyl-10b-hydroxy-N-(naphthalen-2-ylmethyl)-2,4,7-trioxodecahydroazeto[2',1 ':3,4]pyrazino[1.2-a][1,3,5]triazine-9-carboxamide [Compound 20D]",A (a CPE inhibition effect of 5% or more)
4,"(6R,9S,11aR)-11b-Hydroxy-6-isopropyl-N-(naphthalen-2-ylmethyl)-2,4,7-trioxo-1,3-bis(thien-2-ylmethyl)decahydro- 2H-pyrrolo[2',1':3,4] pyridazine[1,2-a][1,3,5] triazine-9-carboxamide [Compound 27D]",A (a CPE inhibition effect of 5% or more)
5,"(6R,9S,11aR,11bR)-1,3-Dibenzyl-9-(4-fluoroisoindolin-2-carbonyl)-11b-hydroxy-6-isopropylhexahydro -2H-pyrrolo[2',1':3,4]pyri dazino[1,2-a][1,3,5] triazine-2.4. 7(3H.6H)-trione [Compound 3J]",A (a CPE inhibition effect of 5% or more)
6,"(6R,9S,11aR,11bR)-1,3-Dibenzyl-11b-hydroxy-6-(4 -methoxybenzyl)-N-(naphthalen-2-ylmethyl)-2,4,7-trioxodecahydro-2H-pyrrolo[2',1':3,4] pyridazino[1,2-a][1.3.5] triazine-9-carboxamide [Compound 6D]",B (a CPE inhibition effect of less than 5% but 1% or more)
7,"(6R,9S,11aR,11bR)-1,3-Dibenzyl-11b-hydroxy-6-isopropyl-2,4,7-trioxo-phenyl-deca-hydro-2H-pyrrolo [2',1':3,4]pyrazino[1, 2-a][1,3,5]triazine-9-carboxamide [Compound 3G]",A (a CPE inhibition effect of 5% or more)
8,"(6R,9S,11aR,11bR)-1,3-Dibenzyl-11b-hydroxy-6-isopropyl-N-(naphthalen-2-ylmethyl)-2,4,7-trioxodecahydro-2H-pyrrolo[ 2',1':3,4]pyrazino[1,2-a] [1,3,5]triazine^-9^-carbamide [Compound 3D]",A (a CPE inhibition effect of 5% or more)
9,"(6R,9S,11aR,11bR)-1,3-Dibenzyl-11b-hydroxy-N,6-bis(naphthalen-2-ylmethyl)-2.4.7-trioxodecahydro-2H-pyrrolo[2'.1':3,4] pyrazino[1,2-a][1,3,5] triazine-9-carboxamide [Compound 7D]",B (a CPE inhibition effect of less than 5% but 1% or more)
10,"(6R,9S,11aR,11bR)-1,3-bis(furan-2-ylmethyl)-11b-hydroxy-6-isopropyl-N-(naphthalen-2-ylmethyl)-2,4,7-trioxodecahydro-2H-pyrrolo[2',1':3,4]pyridazin e[1,2-a] [1,3,5]triazine-9-carboxamide [Compound 28D]",A (a CPE inhibition effect of 5% or more)
11,"(6R,9S,11aR,11bR)-6-benzyl-11b-hydroxy-N-(naphthalen-2-ylmethyl)-2 ,4,7-trioxo-1,3-bis (thien-2-ylmethyl) decahydro-2H-pyrrolo [2',1':3,4]pyridazino[1,2-a] [1.3,5]triazine-9-carboxamide [Compound 18D]",C (less than 1%)
12,"(6R,10R,11aR)-1.3,6-tribenzyl-10-(benzyl oxy)-11b-hydroxyhexahydro-2H-pyrrolo [2',1':3,4]pyrazino[1,2-a][1.3,5] triazine-2,4,7(3H.6H)-trione [Compound 15A]",C (less than 1%)
13,"(6R,10R.11aS)-1,3.6-tribenzyl-10-(benzyl oxy)-11b-hydroxyhexahydro-2H-pyrrolo [2',1':3,4]pyridazino[1,2-a][1,3,5 triazine-2,4,7(3H.6H)-trione [Compound 14A]",B (a CPE inhibition effect of less than 5% but 1% or more)
14,"(6R.9S)-1.3-benzyl-6-(4-fluorobenzyl)-N-(naphthalen-2-ylmethyl)-2, 4,7-trioxo-1,3,4,6,7,9,10,11-octahydro-2H-pyrrolo [2',1':3,4]pyridazine [1,2-a][1,3,5]triazine-9-carboxamide [Compound 5E]",C (less than 1%)
15,"(6R.9S.11aR.11bR)-1,3-Dibenzyl-6-(4-fluorobenzyl)-11b-hydroxy-N-(naphthalen-2-yl methyl)-2,4,7-trioxodecahydro-2H-pyrrolo[2',1':3,4]pyridazine [1,2-a][1,3,5]triazine-9-carboxamide [Compound 5D]",A (a CPE inhibition effect of 5% or more)
16,"(6R.11aR)-1,3,6-tribenzyl-11b-hydroxy-11a-methylhexahydro-2H-pyrrolo[2',1':3,4] pyrazino[1,2-a][1,3,5] triazine-2,4,7(3H,6H)-trione [Compound 19A]",A (a CPE inhibition effect of 5% or more)
17,"(6S,9R,11aS,11bS)-1,3,6-Tri benzyl-11b-hydroxy-2,4,7-tri oxodecahydro-2H-pyrrolo [2',1':3,4]pyridazine[1,2-a] [1,3,5]triazine-9-carboxylic acid [Compound 4C]",C (less than 1%)
18,"(6S,9R,11aS,11bS)-1,3,6-Tribenzyl-11b-hydroxy-N-(naphthalen-2-ylmethyl)-2,4 ,7-trioxo-2H-pyrrolo [2',1':3,4]pyrazino [1,2-a][1,3,5]triazine-9-carboxamide [Compound 4D]",A (a CPE inhibition effect of 5% or more)

# Same assay, conditions: Severe acute respiratory syndrome coronavirus 2, VeroE6/TMPRSS2, 72 h, read-out: Anti SARS-CoV-2 activity
row,Compound,inhibition at 10 µM [%]
1,"O=C(NCc1ccc2ccccc2c1)[C@@H]1CC[C@H]2N1C(=O)C1(Cc3ccccc3C1)N1C(=O)N(Cc3ccccc3)C(=O)N(Cc3ccccc3)C21O (stereo partly drawn) [Compound 21D, (9'S,11a'R)-1',3'-Dibenzyl-11b'-Hydroxy-N-(naphthalen-2-ylmethyl)-2',4',7'-trioxo-1,1',3,3',4',9',10',11',11a',1 1b'-decahydro-2'H,7'H-spiro[indene-2,6'-pyrrolo[2',1':3,4]pyrazino[1,2-a][1,3,5]triazine]-9'-carboxamide]",1 to 5
2,"COC(=O)[C@@H]1CCC[C@H]2N1C(=O)[C@@H](Cc1ccccc1)N1C(=O)N(Cc3ccccc3)C(=O)N(Cc3ccccc3)C21O (stereo partly drawn) [Compound 25A, Methyl (6R,9S,12aR)-1,3,6-tribenzyl-12b-hydroxy-2,4,7-trioxododecahydropyri do[2',1':3,4]pyrazino[1,2-a][1,3,5]triazine-9-carboxylate]",> 5
3,"O=C(NCc1ccc2ccccc2c1)[C@H]1CCCC2=C3N(Cc4ccccc4)C(=O)N(Cc4ccccc4)C(=O)N3[C@H](Cc3ccccc3)C(=O)N21 [Compound 25E, (6R,9R)-1,3,6-Tribenzyl-N-(naphthalen-2-ylmethyl)-2,4,7-trioxo-1,2,3,4,6,7,9,10,11,12-decahydropyrido[2',1':3,4] pyrazino[1,2-a][1,3,5]triazine-9-carboxamide]",1 to 5
4,"CCOC(=O)[C@H]1CC[C@@H]2N1C(=O)[C@H](C(C)C)N1C(=O)N(Cc3ccccc3)C(=O)N(Cc3ccccc3)[C@@]21O [Compound 26A, Ethyl (6S,9R,11aS,11bS)-1,3-dibenzyl-11b-hydroxy-6-isopropyl-2,4,7-trioxodecahydro-2H-pyrrolo[2',1':3,4]pyrazi no[1,2-a][1,3,5] triazine-9-carboxylate]",> 5
5,"CCOC(=O)[C@@H]1CC[C@H]2N1C(=O)[C@@H](C(C)C)N1C(=O)N(Cc3ccco3)C(=O)N(Cc3ccco3)[C@]21O [Compound 28A, Ethyl (6R,9S,11aR,11bR)-1,3-bis(furan-2-ylmethyl)-11b-hydroxy-6-isopropyl-2,4,7-trioxodecahydro-2H-pyrrolo[2',1':3,4] pyrazino[1,2-a][1,3,5] triazine-9-carboxylate]",> 5
6,"CC(C)[C@@H]1C(=O)N2[C@H](C(=O)NCc3cnc4ccccc4c3)CC[C@@H]2[C@@]2(O)N(Cc3ccco3)C(=O)N(Cc3ccco3)C(=O)N12 [Compound 28F, (6R,9S,11aR,11bR)-1,3-bis(2-furylmethyl)-11b-hydroxy-6-isopropyl-2,4,7-trioxo-N-(3-quinolylmethyl)decahydro-2H-pyrrolo[2',1':3,4]pyrazino[1,2-a][1,3,5]triazine-9-carboxamide]",> 5
7,"CCOC(=O)[C@@H]1CC[C@H]2N1C(=O)[C@@H](CC)N1C(=O)N(Cc3ccccc3)C(=O)N(Cc3ccccc3)[C@]21O [Compound 29A, Ethyl (6R,9S,11aR,11bR)-1,3-dibenzyl-6-ethyl-11b-hydroxy-2,4,7-trioxodecahydro-2H-pyrrolo[2',1':3,4]pyrazi no[1,2-a][1,3,5] triazine-9-carboxylate]",> 5
8,"CC[C@@]1(C(C)C)C(=O)N2[C@H](C(=O)NCc3ccc4ccccc4c3)CC[C@@H]2[C@@]2(O)N(Cc3ccccc3)C(=O)N(Cc3ccccc3)C(=O)N21 [Compound 29D, (6R,9S,11aR,11bR)-1,3-Dibenzyl-6-ethyl-11b-hydroxy-6-isopropyl-N-(naphthalen-2-ylmethyl)-2,4,7-trioxodecahydro-2H-pyrrolo[2',1':3,4] pyrazino[1,2-a][1,3,5] triazine-9-carboxamide]",> 5
